Assay results taken from ChEMBL document CHEMBL1909046, “DrugMatrix in vitro pharmacology data”.
pIC50, pKi: −log10 of the molar value.

What was measured:
Thromboxane-A synthase = target: T1, Thromboxane-A synthase (Homo sapiens, UniProt P24557); assay: biochemical; assay type: tissue-based, Platelet; details: platelet;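 also: enzyme inhibition assay with PGH2 supplied as substrate; in other assays of this panel Not Active means under 50% inhibition at 10 µM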
T1 sequence (P24557 whole entry): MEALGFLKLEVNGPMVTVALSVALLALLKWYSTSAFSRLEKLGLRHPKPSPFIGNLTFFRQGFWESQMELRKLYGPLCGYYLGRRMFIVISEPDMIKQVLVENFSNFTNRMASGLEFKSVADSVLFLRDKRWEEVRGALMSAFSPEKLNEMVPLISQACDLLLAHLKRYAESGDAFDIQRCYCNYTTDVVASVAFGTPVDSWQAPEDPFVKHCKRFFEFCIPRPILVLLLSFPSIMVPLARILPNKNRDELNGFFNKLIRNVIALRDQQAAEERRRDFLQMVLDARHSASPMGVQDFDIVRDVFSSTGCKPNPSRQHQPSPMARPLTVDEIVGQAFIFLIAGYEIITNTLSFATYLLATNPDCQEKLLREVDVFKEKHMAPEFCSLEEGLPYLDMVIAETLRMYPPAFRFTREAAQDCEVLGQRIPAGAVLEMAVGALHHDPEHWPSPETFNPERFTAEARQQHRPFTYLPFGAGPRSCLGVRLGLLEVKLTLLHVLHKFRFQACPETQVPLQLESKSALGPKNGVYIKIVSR

[1] = target: Prostaglandin G/H synthase 1 (Homo sapiens, UniProt P23219); assay: biochemical; assay type: tissue-based, Platelet; details: for IC50 / Ki: platelet;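 as to all read-outs here: inhibition of COX-1 enzyme activity, with arachidonic acid supplied as substrate; in other assays of this panel Not Active means under 50% inhibition at 10 µM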
Sequence of Prostaglandin G/H synthase 1 (P23219 whole entry): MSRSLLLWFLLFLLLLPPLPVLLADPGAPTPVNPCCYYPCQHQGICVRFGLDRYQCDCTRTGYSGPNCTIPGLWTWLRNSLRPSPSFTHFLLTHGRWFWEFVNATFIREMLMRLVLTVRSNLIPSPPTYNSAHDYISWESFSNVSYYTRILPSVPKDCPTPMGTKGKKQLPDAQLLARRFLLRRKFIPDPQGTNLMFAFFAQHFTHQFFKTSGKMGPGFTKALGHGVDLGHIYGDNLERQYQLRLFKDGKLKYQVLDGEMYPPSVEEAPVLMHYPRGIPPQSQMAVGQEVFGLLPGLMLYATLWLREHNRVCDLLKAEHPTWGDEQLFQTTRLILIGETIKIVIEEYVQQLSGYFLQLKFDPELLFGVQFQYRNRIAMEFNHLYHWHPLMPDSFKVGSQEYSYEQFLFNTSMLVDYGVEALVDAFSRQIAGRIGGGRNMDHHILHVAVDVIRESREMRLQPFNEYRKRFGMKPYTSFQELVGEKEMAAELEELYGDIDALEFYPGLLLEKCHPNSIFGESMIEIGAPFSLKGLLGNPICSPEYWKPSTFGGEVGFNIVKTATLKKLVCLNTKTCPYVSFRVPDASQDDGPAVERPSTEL

[2] = target: Sodium-dependent dopamine transporter (Homo sapiens, UniProt Q01959); assay: DRUGMATRIX: Dopamine Transporter radioligand binding (ligand: [125I] RTI-55); assay type: cell membranes, CHO-K1, Membrane; details: cho-k1; Not Active = under 50% inhibition at 10 µM
Sequence of Sodium-dependent dopamine transporter (Q01959 whole entry): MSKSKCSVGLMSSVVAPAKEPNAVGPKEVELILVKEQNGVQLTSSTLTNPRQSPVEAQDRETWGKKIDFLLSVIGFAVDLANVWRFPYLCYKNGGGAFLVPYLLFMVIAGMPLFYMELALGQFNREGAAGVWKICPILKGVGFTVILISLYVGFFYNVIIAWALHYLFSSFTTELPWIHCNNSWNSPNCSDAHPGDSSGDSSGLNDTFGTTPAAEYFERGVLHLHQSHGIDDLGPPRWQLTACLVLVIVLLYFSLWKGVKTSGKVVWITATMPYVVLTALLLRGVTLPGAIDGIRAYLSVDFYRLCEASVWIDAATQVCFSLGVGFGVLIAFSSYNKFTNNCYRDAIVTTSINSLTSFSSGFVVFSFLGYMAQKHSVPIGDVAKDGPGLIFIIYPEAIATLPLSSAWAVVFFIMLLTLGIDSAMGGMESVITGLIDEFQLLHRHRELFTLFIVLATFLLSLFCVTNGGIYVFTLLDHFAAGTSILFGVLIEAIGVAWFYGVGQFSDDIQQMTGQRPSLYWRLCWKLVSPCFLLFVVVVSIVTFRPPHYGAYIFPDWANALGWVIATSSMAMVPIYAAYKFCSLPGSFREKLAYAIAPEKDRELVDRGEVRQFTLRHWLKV

Insulin receptor = Insulin receptor (Rattus norvegicus, UniProt P15127); assay type: cell membranes, Wistar, Liver, Membrane; also: in other assays of this panel Not Active means under 50% inhibition at 10 µM
Sequence of Insulin receptor (P15127 27-759 limits assumed): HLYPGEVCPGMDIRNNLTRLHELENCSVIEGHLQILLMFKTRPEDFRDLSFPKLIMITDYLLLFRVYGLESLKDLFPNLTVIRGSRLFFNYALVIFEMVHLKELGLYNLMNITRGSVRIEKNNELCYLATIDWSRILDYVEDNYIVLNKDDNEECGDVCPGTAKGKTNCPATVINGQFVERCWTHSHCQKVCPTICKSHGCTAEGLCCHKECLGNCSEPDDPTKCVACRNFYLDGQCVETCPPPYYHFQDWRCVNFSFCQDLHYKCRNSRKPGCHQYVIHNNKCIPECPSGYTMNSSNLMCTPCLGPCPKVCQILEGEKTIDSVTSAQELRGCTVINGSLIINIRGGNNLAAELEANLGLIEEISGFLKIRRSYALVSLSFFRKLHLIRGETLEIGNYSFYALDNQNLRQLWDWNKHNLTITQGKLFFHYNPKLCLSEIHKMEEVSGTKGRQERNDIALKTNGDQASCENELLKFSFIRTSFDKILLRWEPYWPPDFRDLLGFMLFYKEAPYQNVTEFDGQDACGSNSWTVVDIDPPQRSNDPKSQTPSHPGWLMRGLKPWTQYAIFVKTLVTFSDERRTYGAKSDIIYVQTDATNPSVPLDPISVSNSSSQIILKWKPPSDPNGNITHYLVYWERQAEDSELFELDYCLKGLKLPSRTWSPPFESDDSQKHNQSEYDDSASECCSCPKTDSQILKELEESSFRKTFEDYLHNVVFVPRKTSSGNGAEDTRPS
Sequence of Insulin receptor (P15127 764-1383 limits assumed): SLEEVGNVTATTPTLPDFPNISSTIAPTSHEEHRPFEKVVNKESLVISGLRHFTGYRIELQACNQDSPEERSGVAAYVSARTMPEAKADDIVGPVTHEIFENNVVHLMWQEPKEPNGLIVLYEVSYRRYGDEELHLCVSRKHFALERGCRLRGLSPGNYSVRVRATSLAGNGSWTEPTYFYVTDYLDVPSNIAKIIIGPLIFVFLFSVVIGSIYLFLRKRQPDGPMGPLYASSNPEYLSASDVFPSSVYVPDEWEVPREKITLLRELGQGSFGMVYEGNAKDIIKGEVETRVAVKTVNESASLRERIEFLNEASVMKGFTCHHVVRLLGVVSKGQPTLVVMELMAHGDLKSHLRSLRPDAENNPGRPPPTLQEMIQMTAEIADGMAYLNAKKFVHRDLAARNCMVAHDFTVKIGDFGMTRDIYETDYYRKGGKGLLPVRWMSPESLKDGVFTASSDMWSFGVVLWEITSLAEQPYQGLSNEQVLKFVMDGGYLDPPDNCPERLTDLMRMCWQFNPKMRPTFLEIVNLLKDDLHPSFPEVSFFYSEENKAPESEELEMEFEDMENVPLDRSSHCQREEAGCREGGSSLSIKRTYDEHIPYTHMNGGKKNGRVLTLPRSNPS

[3] = target: T2, Polyunsaturated fatty acid lipoxygenase ALOX15 (Oryctolagus cuniculus, UniProt P12530); assay: biochemical; assay type: tissue-based, Reticulocytes; details: reticulocytes;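 also: inhibition of 15-lipoxygenase enzyme activity measured with linoleic acid as the substrate; in other assays of this panel Not Active means under 50% inhibition at 10 µM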
T2 sequence (P12530 whole entry): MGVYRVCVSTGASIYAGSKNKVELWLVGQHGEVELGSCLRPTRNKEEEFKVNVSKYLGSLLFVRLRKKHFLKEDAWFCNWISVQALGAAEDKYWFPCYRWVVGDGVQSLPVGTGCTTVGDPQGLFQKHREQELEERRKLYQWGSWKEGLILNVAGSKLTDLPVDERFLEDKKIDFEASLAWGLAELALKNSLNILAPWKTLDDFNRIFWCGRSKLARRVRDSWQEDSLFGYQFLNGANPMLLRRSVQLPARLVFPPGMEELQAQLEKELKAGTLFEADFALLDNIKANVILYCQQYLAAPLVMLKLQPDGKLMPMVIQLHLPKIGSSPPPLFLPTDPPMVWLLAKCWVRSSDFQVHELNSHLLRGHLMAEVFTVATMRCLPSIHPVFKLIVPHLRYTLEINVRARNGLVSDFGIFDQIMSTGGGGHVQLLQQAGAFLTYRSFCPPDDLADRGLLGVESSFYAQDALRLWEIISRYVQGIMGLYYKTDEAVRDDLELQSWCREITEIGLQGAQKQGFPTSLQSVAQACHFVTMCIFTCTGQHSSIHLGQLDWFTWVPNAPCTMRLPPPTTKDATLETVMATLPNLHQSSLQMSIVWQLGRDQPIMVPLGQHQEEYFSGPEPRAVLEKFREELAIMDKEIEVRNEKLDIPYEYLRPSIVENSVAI

[4] = target: Mitogen-activated protein kinase 1 (Homo sapiens, UniProt P28482); assay: DRUGMATRIX: Protein Serine/Threonine Kinase, ERK2 enzyme inhibition (substrate: Myelin Basic Protein); design: species or system Escherichia coli; details: Not Active = under 50% inhibition at 10 µM
Sequence of Mitogen-activated protein kinase 1 (P28482 whole entry): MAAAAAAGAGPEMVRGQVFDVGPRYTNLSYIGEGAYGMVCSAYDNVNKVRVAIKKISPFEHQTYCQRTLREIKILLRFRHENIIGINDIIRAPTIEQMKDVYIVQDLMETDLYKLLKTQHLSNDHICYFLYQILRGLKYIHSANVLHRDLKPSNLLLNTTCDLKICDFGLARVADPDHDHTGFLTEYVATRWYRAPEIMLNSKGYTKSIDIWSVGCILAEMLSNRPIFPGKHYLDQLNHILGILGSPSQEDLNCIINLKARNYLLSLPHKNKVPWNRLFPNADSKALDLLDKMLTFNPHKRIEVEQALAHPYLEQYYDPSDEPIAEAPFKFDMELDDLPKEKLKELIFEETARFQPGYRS

## CC(C(=O)O)c1ccc(CC2CCCC2=O)cc1 (stereo not drawn) [LOXOPROFEN]
Thromboxane-A synthase
  IC50: Not Active
[1]
  IC50: Not Active
[2]
  IC50: Not Active
Insulin receptor
  IC50: Not Active
[3]
  IC50: Not Active
[4]
  IC50: Not Active

## Cc1cccc(Nc2ccccc2C(=O)O)c1C [MEFENAMIC ACID]
Thromboxane-A synthase
  IC50: Not Active
[1]; read-out: IC50
  pIC50: 6.94
[2]
  IC50: Not Active
Insulin receptor
  IC50: Not Active
[3]
  IC50: Not Active
[4]
  IC50: Not Active

## CC(=O)O[C@]1(C(C)=O)CC[C@H]2[C@@H]3C=C(C)C4=CC(=O)CC[C@]4(C)[C@H]3CC[C@@]21C [MEGESTROL ACETATE]
Thromboxane-A synthase
  IC50: Not Active
[1]
  IC50: Not Active
[2]
  IC50: Not Active
Insulin receptor
  IC50: Not Active
[3]
  IC50: Not Active
[4]
  IC50: Not Active

## COc1ccccc1OCC(O)COC(N)=O (stereo not drawn) [METHOCARBAMOL]
Thromboxane-A synthase
  IC50: Not Active
[1]
  IC50: Not Active
[2]
  IC50: Not Active
Insulin receptor
  IC50: Not Active
[3]
  IC50: Not Active
[4]
  IC50: Not Active

## CN(Cc1cnc2nc(N)nc(N)c2n1)c1ccc(C(=O)N[C@@H](CCC(=O)O)C(=O)O)cc1 [METHOTREXATE]
Thromboxane-A synthase
  IC50: Not Active
[1]
  IC50: Not Active
[2]
  IC50: Not Active
Insulin receptor
  IC50: Not Active
[3]
  IC50: Not Active
[4]
  IC50: Not Active

## COC(=O)c1ccccc1O [METHYL SALICYLATE]
Thromboxane-A synthase
  IC50: Not Active
[1]
  IC50: Not Active
[2]
  IC50: Not Active
Insulin receptor
  IC50: Not Active
[3]
  IC50: Not Active
[4]
  IC50: Not Active

## COc1ccc2cc(CCC(C)=O)ccc2c1 [NABUMETONE]
Thromboxane-A synthase
  IC50: Not Active
[1]
  IC50: Not Active
[2]
  IC50: Not Active
Insulin receptor
  IC50: Not Active
[3]
  IC50: Not Active
[4]
  IC50: Not Active

## O=C(O)c1cccnc1 [NIACIN]
Thromboxane-A synthase
  IC50: Not Active
[1]
  IC50: Not Active
[2]
  IC50: Not Active
Insulin receptor
  IC50: Not Active
[3]
  IC50: Not Active
[4]
  IC50: Not Active

## CNC(=C[N+](=O)[O-])NCCSCc1csc(CN(C)C)n1 [NIZATIDINE]
Thromboxane-A synthase
  IC50: Not Active
[1]
  IC50: Not Active
[2]
  IC50: Not Active
Insulin receptor
  IC50: Not Active
[3]
  IC50: Not Active
[4]
  IC50: Not Active

## C[C@]12C/C(=C/O)C(=O)C[C@@H]1CC[C@@H]1[C@@H]2CC[C@@]2(C)[C@H]1CC[C@]2(C)O [OXYMETHOLONE]
Thromboxane-A synthase
  IC50: Not Active
[1]
  IC50: Not Active
[2]
  IC50: Not Active
Insulin receptor
  IC50: Not Active
[3]
  IC50: Not Active
[4]
  IC50: Not Active

## CC(C)(CO)C(O)C(=O)NCCCO (stereo not drawn) [PANTHENOL]
Thromboxane-A synthase
  IC50: Not Active
[1]
  IC50: Not Active
[2]
  IC50: Not Active
Insulin receptor
  IC50: Not Active
[3]
  IC50: Not Active
[4]
  IC50: Not Active

## COc1ccc(Cc2nccc3cc(OC)c(OC)cc23)cc1OC [PAPAVERINE]
Thromboxane-A synthase
  IC50: Not Active
[1]
  IC50: Not Active
[2]
  IC50: Not Active
Insulin receptor
  IC50: Not Active
[3]
  IC50: Not Active
[4]
  IC50: Not Active

## OCCN1CCN(CCCN2c3ccccc3Sc3ccc(Cl)cc32)CC1 [PERPHENAZINE]
Thromboxane-A synthase
  IC50: Not Active
[1]
  IC50: Not Active
[2]
  IC50: Not Active
Insulin receptor
  IC50: Not Active
[3]
  IC50: Not Active
[4]
  IC50: Not Active

## CCCCC1C(=O)N(c2ccccc2)N(c2ccccc2)C1=O [PHENYLBUTAZONE]
Thromboxane-A synthase
  IC50: Not Active
[1]
  IC50: Not Active
[2]
  IC50: Not Active
Insulin receptor
  IC50: Not Active
[3]
  IC50: Not Active
[4]
  IC50: Not Active

## Cc1cccc(Nc2cc(Cl)nc(SCC(=O)O)n2)c1C [PIRINIXIC ACID]
Thromboxane-A synthase
  IC50: Not Active
[1]
  IC50: Not Active
[2]
  IC50: Not Active
Insulin receptor
  IC50: Not Active
[3]
  IC50: Not Active
[4]
  IC50: Not Active

## CC[C@H](C)C(=O)O[C@H]1C[C@H](O)C=C2C=C[C@H](C)[C@H](CC[C@@H](O)C[C@@H](O)CC(=O)O)[C@H]21 [PRAVASTATIN]
Thromboxane-A synthase
  IC50: Not Active
[1]
  IC50: Not Active
[2]
  IC50: Not Active
Insulin receptor
  IC50: Not Active
[3]
  IC50: Not Active
[4]
  IC50: Not Active

## CC(C)(Sc1cc(C(C)(C)C)c(O)c(C(C)(C)C)c1)Sc1cc(C(C)(C)C)c(O)c(C(C)(C)C)c1 [PROBUCOL]
Thromboxane-A synthase
  IC50: Not Active
[1]
  IC50: Not Active
[2]
  IC50: Not Active
Insulin receptor
  IC50: Not Active
[3]
  IC50: Not Active
[4]
  IC50: Not Active

## COBALT(II) ACETYLACETONATE
Thromboxane-A synthase
  IC50: Not Active
  Ki: Not Active
[1]
  IC50: Not Active
  Ki: Not Active
[2]
  IC50: Not Active
  Ki: Not Active
Insulin receptor
  IC50: Not Active
  Ki: Not Active
[3]
  IC50: Not Active
  Ki: Not Active
[4]
  IC50: Not Active
  Ki: Not Active

## INSULIN HUMAN
Thromboxane-A synthase
  IC50: Not Active
  Ki: Not Active
[1]
  IC50: Not Active
  Ki: Not Active
[2]
  IC50: Not Active
  Ki: Not Active
Insulin receptor; read-out: IC50
  pIC50: 8.71
Insulin receptor; read-out: Ki
  pKi: 8.74
[3]
  IC50: Not Active
  Ki: Not Active
[4]
  IC50: Not Active
  Ki: Not Active

## POLYVINYL ALCOHOL
Thromboxane-A synthase
  IC50: Not Active
  Ki: Not Active
[1]
  IC50: Not Active
  Ki: Not Active
[2]
  IC50: Not Active
  Ki: Not Active
Insulin receptor
  IC50: Not Active
  Ki: Not Active
[3]
  IC50: Not Active
  Ki: Not Active
[4]
  IC50: Not Active
  Ki: Not Active
